Among the data in the OPERA property sets (Mansouri et al. 2018) are logP values, retold here.

Turning to `CCCCCCCCC(C)c1ccccc1` (configuration not stated), the logP was 7.06. `CCCCCCCCCCCc1ccccc1` yielded a lipophilicity (logP) of 8.14.

On to `CCCCCCCCCCCCCc1ccccc1`, for which the log partition coefficient (logP) was 9.36. For `CCCCCCCCCC(CCC)c1ccccc1` (configuration not stated), the lipophilicity (logP) was determined as 8.62. For the compound `CCCCCCCCCCCC(C)c1ccccc1` (configuration not stated), the logP amounted to 8.77. The same measure for `CCCCCCCCCC(CC)c1ccccc1` (configuration not stated): 8.1; for `CCCCCCCCC(CCCC)c1ccccc1` (configuration not stated): 8.56; for `CCCCCCC(CCCCC)c1ccccc1` (configuration not stated): 8.01. `CCCCCC(CCCCC)c1ccccc1` registered a log partition coefficient (logP) of 7.45.

With `CCCCCCCCC(CC)c1ccccc1` (configuration not stated), the log partition coefficient (logP) stood at 7.53. `CCCCCCCCCCCC(CC)c1ccccc1` (configuration not stated) had a logP of 9.29. In turn, `CCCCCCCCCCC(CC)c1ccccc1` (configuration not stated) had a logP of 8.65.

`CCCCCCCCCCCCC(C)c1ccccc1` (configuration not stated) displayed a logP of 9.29. Under `CCCCCCCC(CC)c1ccccc1` (configuration not stated) stands 7; under `CCCCCCCCCCC(CCC)c1ccccc1` (configuration not stated), 9.25; under `CCCCCCCCC(CCC)c1ccccc1` (configuration not stated), 8.07. Compound `CCCCCCCCCCCCc1ccccc1` yielded a lipophilicity (logP) of 8.65.

As to `CCCCCCCC(CCC)c1ccccc1` (configuration not stated), the logP came out at 7.59. `CCCCCCCCCC(C)c1ccccc1` (configuration not stated): the logP was 7.63. Compound `CCCCCCC(CCCC)c1ccccc1` (configuration not stated) returned a logP of 7.45. As for `CCCCCCC(CCC)c1ccccc1` (configuration not stated), the log partition coefficient (logP) stood at 7. The same measure for `CCCCCCCCCCC(C)c1ccccc1` (configuration not stated): 8.19. Compound `CCCCCCCCCC(CCCC)c1ccccc1` (configuration not stated) registered a logP of 9.16. Under `CCCCCC(CCCC)c1ccccc1` (configuration not stated) stands 6.9; under `CCCCCCCC(CCCC)c1ccccc1` (configuration not stated), 8.01; under `CCCCCCCCC(CCCCC)c1ccccc1` (configuration not stated), 9.16. On to `CCCCCCCC(CCCCC)c1ccccc1` (configuration not stated), for which the log partition coefficient (logP) was 8.56.

In general, logP refers to a log measure of how a compound divides between an organic and an aqueous phase.
